Data published in PubChem BioAssay AID330 (DTP/NCI, 2004).
Values joined by “and” are separate entries in the source; they are usually repeats but may differ in a detail not shown here. Equal entries are not always repeated. Toxic doses and inconclusive results are not listed. Rule for the calls: active = survival T/C of 150% or more; inactive = T/C below 125% in these data.

System: P388 leukemia ip, CD2F1 mice, survival T/C
Assay: NCI In Vivo Anticancer Drug Screen. Data for tumor model P388 Leukemia (intraperitoneal) in CD2F1 (CDF1) mice
Settings: endpoint: median survival time, higher = longer survival
In short: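 Mice carrying the transplanted tumor received test compound or vehicle. Survival was recorded in each group, and the value is the treated-group measurement divided by that of the vehicle-treated control group.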

[1] = dose: 60.0 mg/kg/injection, schedule: Q01DX005 (ip), vehicle: saline with Tween-80
[2] = dose: 120.0 mg/kg/injection, schedule: Q01DX005 (ip), vehicle: saline with Tween-80
[3] = dose: 240.0 mg/kg/injection, schedule: Q01DX005 (ip), vehicle: saline with Tween-80
[4] = dose: 200.0 mg/kg/injection, schedule: Q04DX003 (ip), vehicle: saline
[5] = dose: 400.0 mg/kg/injection, schedule: Q04DX003 (ip), vehicle: saline
[6] = dose: 50.0 mg/kg/injection, schedule: Q01DX005 (ip), vehicle: saline with Tween-80
[7] = dose: 100.0 mg/kg/injection, schedule: Q01DX005 (ip), vehicle: saline with Tween-80
[8] = dose: 200.0 mg/kg/injection, schedule: Q01DX005 (ip), vehicle: saline with Tween-80
[9] = dose: 50.0 mg/kg/injection, schedule: Q01DX009 (ip), vehicle: saline with Tween-80
[10] = dose: 100.0 mg/kg/injection, schedule: Q01DX009 (ip), vehicle: saline with Tween-80
[11] = dose: 200.0 mg/kg/injection, schedule: Q01DX009 (ip), vehicle: saline with Tween-80
[12] = dose: 50.0 mg/kg/injection, schedule: Q01DX005 (ip), vehicle: Klucel (hydroxypropylcellulose) (HPC)
[13] = dose: 100.0 mg/kg/injection, schedule: Q01DX005 (ip), vehicle: Klucel (hydroxypropylcellulose) (HPC)
[14] = dose: 200.0 mg/kg/injection, schedule: Q01DX005 (ip), vehicle: Klucel (hydroxypropylcellulose) (HPC)
[15] = dose: 25.0 mg/kg/injection, schedule: Q01DX005 (ip), vehicle: Klucel (hydroxypropylcellulose) (HPC)
[16] = dose: 50.0 mg/kg/injection, schedule: Q01DX009 (ip), vehicle: Klucel (hydroxypropylcellulose) (HPC)
[17] = dose: 100.0 mg/kg/injection, schedule: Q01DX009 (ip), vehicle: Klucel (hydroxypropylcellulose) (HPC)
[18] = dose: 200.0 mg/kg/injection, schedule: Q01DX009 (ip), vehicle: Klucel (hydroxypropylcellulose) (HPC)

Measured: T/C

ClCC(Br)CBr (stereo not given)
inactive: dose: 37.5 mg/kg/injection, schedule: Q01DX009 (ip), vehicle: saline with Tween-80 104 % of control | dose: 37.5 mg/kg/injection, schedule: Q04DX003 (ip), vehicle: saline with Tween-80 100 % of control | dose: 50.0 mg/kg/injection, schedule: Q01DX009 (ip), vehicle: saline sonified 105 % of control | dose: 75.0 mg/kg/injection, schedule: Q04DX003 (ip), vehicle: saline with Tween-80 90 % of control | dose: 150.0 mg/kg/injection, schedule: Q01DX009 (ip), vehicle: saline with Tween-80 104 % of control | dose: 150.0 mg/kg/injection, schedule: Q04DX003 (ip), vehicle: saline with Tween-80 95 % of control

CCOC(=O)c1oc2cc(O)ccc2c(=O)c1-c1ccc(OC)c(OC)c1
inactive: [1] 96 % of control | [2] 87 % of control | [3] 86 % of control

CC1(C)CNC(=O)C2=C(O1)C(=O)OC2
inactive: dose: 100.0 mg/kg/injection, schedule: Q04DX002 (ip), vehicle: saline with Tween-80 100 % of control | dose: 200.0 mg/kg/injection, schedule: Q04DX002 (ip), vehicle: saline with Tween-80 100 % of control | dose: 400.0 mg/kg/injection, schedule: Q04DX002 (ip), vehicle: saline with Tween-80 103 % of control

CCOC(=O)NC(NC(=O)OCC)c1cccnc1
inactive: [4] 94 % of control | [5] 101 % of control

Cc1nc([Se]c2nc(C)n3ccncc23)c2cnccn12
inactive: dose: 37.5 mg/kg/injection, schedule: Q01DX001 (ip), vehicle: saline with Tween-80 95 % of control | dose: 75.0 mg/kg/injection, schedule: Q01DX001 (ip), vehicle: saline with Tween-80 100 % of control | dose: 150.0 mg/kg/injection, schedule: Q01DX001 (ip), vehicle: saline with Tween-80 100 % of control

CCCCC(CCCC)[N+](=O)[O-]
inactive: [6] 108 % of control | [7] 110 % of control | [8] 103 % of control

CN1C(=O)C23CCCCN2CC12CC1(C(=O)Nc4c1ccc1c4OC=CC(C)(C)O1)C(C)(C)C2C3 (stereo not given)
inactive: dose: 0.37 mg/kg/injection, schedule: Q01DX009 (ip), vehicle: Klucel (hydroxypropylcellulose) (HPC) 100 % of control | dose: 0.75 mg/kg/injection, schedule: Q01DX009 (ip), vehicle: Klucel (hydroxypropylcellulose) (HPC) 102 % of control | dose: 1.5 mg/kg/injection, schedule: Q01DX009 (ip), vehicle: Klucel (hydroxypropylcellulose) (HPC) 100 % of control | dose: 3.0 mg/kg/injection, schedule: Q01DX009 (ip), vehicle: Klucel (hydroxypropylcellulose) (HPC) 100 % of control | dose: 4.5 mg/kg/injection, schedule: Q01DX009 (ip), vehicle: Klucel (hydroxypropylcellulose) (HPC) 96 % of control | dose: 9.0 mg/kg/injection, schedule: Q01DX009 (ip), vehicle: Klucel (hydroxypropylcellulose) (HPC) 98 % of control | dose: 18.0 mg/kg/injection, schedule: Q01DX009 (ip), vehicle: Klucel (hydroxypropylcellulose) (HPC) 100 % of control

Cc1ccc2nc(N(C)C)[nH]c2c1
inactive: dose: 50.0 mg/kg/injection, schedule: Q01DX005 (ip), vehicle: other 105 % of control | dose: 100.0 mg/kg/injection, schedule: Q01DX005 (ip), vehicle: other 109 % of control

NN1C(=O)c2ccccc2C1=O
inactive: [9] 96 % of control | [10] 112 % of control | [11] 95 % of control | dose: 400.0 mg/kg/injection, schedule: Q01DX009 (ip), vehicle: saline with Tween-80 99 % of control

OCCN(CCO)N(CCO)CCO
inactive: dose: 50.0 mg/kg/injection, schedule: Q01DX005 (ip), vehicle: saline 96 % of control | dose: 100.0 mg/kg/injection, schedule: Q01DX005 (ip), vehicle: saline 97 % of control | dose: 200.0 mg/kg/injection, schedule: Q01DX005 (ip), vehicle: saline 97 % of control

CCOC(=O)C(CCC[n+]1ccc2ccccc2c1)C(=O)OCC
inactive: [12] 96 % of control | [13] 98 % of control | [14] 98 % of control

Cc1cc(NC(=O)Nc2ccc(C3=NCCN3)cc2)ccc1NC(=O)Nc1ccc(C2=NCCN2)cc1
inactive: dose: 100.0 mg/kg/injection, schedule: Q04DX003 (ip), vehicle: saline 100 % of control | [4] 104 % of control | [5] 109 % of control

Cn1c(=O)c2c(ncn2Cc2ccc(O)c([N+](=O)[O-])c2)n(C)c1=O
inactive: [15] 91 % of control | [13] 94 % of control | [14] 92 % of control

O=Nc1c2cc3ccccc3[nH]c-2c2ccccc12
inactive: [6] 101 % of control | [7] 93 % of control | [8] 97 % of control

O=P(c1ccccc1)(c1ccccc1)c1ccccc1.O=P(c1ccccc1)(c1ccccc1)c1ccccc1.O=P(c1ccccc1)(c1ccccc1)c1ccccc1.O=P(c1ccccc1)(c1ccccc1)c1ccccc1.[Fe+3].[O-][Cl+3]([O-])([O-])O
inactive: dose: 100.0 mg/kg/injection, schedule: Q04DX003 (ip), vehicle: saline with Tween-80 97 % of control | dose: 200.0 mg/kg/injection, schedule: Q04DX003 (ip), vehicle: saline with Tween-80 93 % of control

COc1ccc(Nc2cc[nH]c(=O)c2NC(C)=O)cc1
inactive: [1] 100 % of control | [2] 96 % of control | [3] 94 % of control

CN(C)N1C(=O)C(C(=O)Nc2cccc3ccccc23)SC1=S (stereo not given)
inactive: dose: 0.75 mg/kg/injection, schedule: Q01DX005 (ip), vehicle: saline with Tween-80 96 % of control | dose: 1.5 mg/kg/injection, schedule: Q01DX005 (ip), vehicle: saline with Tween-80 88 % of control | dose: 3.0 mg/kg/injection, schedule: Q01DX005 (ip), vehicle: saline with Tween-80 91 % of control | [7] 99 % of control | [8] 103 % of control

O=c1[nH]nc2c3cccc4cccc(c5ccc(O)c1c52)c43
inactive: dose: 60.0 mg/kg/injection, schedule: Q01DX005 (ip), vehicle: Klucel (hydroxypropylcellulose) (HPC) 103 % of control | dose: 120.0 mg/kg/injection, schedule: Q01DX005 (ip), vehicle: Klucel (hydroxypropylcellulose) (HPC) 97 % of control | dose: 240.0 mg/kg/injection, schedule: Q01DX005 (ip), vehicle: Klucel (hydroxypropylcellulose) (HPC) 97 % of control

CCOc1cc2c(cc1C(C)c1cc(OC)c(OC)c(OC)c1)OCO2 (stereo not given)
inactive: [12] 96 % of control | [13] 102 % of control | [14] 96 % of control

O=C1C=C2C(=CCOC2O)O1 (stereo not given)
inactive: dose: 0.3 mg/kg/injection, schedule: Q01DX009 (ip), vehicle: saline with Tween-80 106 % of control | dose: 0.3 mg/kg/injection, schedule: Q04DX003 (ip), vehicle: saline with Tween-80 106 % of control | dose: 1.0 mg/kg/injection, schedule: Q04DX003 (ip), vehicle: saline with Tween-80 114 % of control | dose: 2.0 mg/kg/injection, schedule: Q01DX009 (ip), vehicle: Klucel (hydroxypropylcellulose) (HPC) 117 % of control and 123 % of control | dose: 4.0 mg/kg/injection, schedule: Q01DX009 (ip), vehicle: Klucel (hydroxypropylcellulose) (HPC) 106 % of control and 123 % of control | dose: 10.0 mg/kg/injection, schedule: Q04DX003 (ip), vehicle: saline with Tween-80 113 % of control

O=c1[nH]c2ccc(Cl)cc2c2ccccc12
inactive: [16] 101 % of control | [17] 100 % of control | [18] 105 % of control

NC(=S)c1ccccc1N=Cc1ccccn1
inactive: dose: 100.0 mg/kg/injection, schedule: Q04DX003 (ip), vehicle: Klucel (hydroxypropylcellulose) (HPC) 100 % of control | dose: 200.0 mg/kg/injection, schedule: Q04DX003 (ip), vehicle: Klucel (hydroxypropylcellulose) (HPC) 107 % of control

O=C1c2ccccc2CN1Cc1ccc(Cl)c(Cl)c1
inactive: [9] 96 % of control | [10] 89 % of control | [11] 91 % of control

CCOC(=O)/C=C1/SC(N2CCCCC2)C(=O)N1CC (stereo not given)
inactive: [16] 106 % of control | [17] 110 % of control | [18] 110 % of control

CCOC(=O)N1Cc2cc3ncccc3nc2C1
inactive: [15] 111 % of control | [12] 100 % of control

COc1ccc(C2C3=C(CCC(CN(C)C)C3=O)OC3=C2C(=O)C(CN(C)C)CC3)cc1 (stereo not given)
inactive: dose: 60.0 mg/kg/injection, schedule: Q01DX005 (ip), vehicle: saline 102 % of control | dose: 120.0 mg/kg/injection, schedule: Q01DX005 (ip), vehicle: saline 102 % of control
